pIC50, pKd: −log10 of the molar value.
target: T1, Histone-lysine N-methyltransferase, H3 lysine-79 specific (Homo sapiens, UniProt Q8TEK3); assay: Binding affinity to biotinylated Avi tagged human DoT1L (2 to 416 residues) by SPR analysis
T1 sequence (Q8TEK3 whole entry, the tested form may be a part): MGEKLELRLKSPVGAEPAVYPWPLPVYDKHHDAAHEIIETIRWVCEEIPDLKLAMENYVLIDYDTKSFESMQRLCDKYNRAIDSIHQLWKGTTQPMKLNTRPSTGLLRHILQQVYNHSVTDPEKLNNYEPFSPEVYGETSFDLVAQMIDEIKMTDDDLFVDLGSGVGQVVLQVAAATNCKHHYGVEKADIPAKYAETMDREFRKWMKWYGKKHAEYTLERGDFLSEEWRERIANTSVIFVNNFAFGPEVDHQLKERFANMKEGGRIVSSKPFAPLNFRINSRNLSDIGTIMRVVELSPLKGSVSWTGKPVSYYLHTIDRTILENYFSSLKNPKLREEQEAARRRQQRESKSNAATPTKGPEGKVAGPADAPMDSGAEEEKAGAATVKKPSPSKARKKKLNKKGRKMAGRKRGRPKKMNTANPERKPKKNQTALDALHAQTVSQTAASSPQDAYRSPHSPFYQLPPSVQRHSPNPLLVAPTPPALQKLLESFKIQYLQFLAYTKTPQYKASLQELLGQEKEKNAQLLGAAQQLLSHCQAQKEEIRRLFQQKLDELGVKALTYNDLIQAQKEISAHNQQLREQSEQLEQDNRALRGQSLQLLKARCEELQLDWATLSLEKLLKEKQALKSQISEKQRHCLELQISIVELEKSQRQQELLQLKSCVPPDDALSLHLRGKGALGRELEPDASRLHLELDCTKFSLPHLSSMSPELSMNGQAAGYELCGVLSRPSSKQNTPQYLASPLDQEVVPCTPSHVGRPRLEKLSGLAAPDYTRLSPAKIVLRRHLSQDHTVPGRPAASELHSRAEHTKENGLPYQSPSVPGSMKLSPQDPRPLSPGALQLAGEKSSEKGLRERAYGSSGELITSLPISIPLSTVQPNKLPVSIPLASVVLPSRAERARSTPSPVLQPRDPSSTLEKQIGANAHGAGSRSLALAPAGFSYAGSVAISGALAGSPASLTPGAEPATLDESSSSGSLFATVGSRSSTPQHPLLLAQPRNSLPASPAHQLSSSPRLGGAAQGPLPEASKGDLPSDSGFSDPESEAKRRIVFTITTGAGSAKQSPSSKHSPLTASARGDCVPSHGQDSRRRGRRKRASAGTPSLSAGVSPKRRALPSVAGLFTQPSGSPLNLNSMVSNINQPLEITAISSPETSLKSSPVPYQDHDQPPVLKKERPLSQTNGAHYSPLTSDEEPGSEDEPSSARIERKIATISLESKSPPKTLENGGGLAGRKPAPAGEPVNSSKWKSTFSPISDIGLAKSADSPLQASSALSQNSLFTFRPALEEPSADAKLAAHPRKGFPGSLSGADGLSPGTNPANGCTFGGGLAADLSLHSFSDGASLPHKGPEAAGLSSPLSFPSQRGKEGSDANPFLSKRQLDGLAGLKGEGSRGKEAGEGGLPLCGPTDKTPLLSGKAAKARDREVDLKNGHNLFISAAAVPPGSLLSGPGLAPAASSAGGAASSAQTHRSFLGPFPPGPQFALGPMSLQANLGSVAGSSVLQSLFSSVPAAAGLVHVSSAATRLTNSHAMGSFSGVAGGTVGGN

| pKd | Compound |
| --- | --- |
| 4.30 | CNC(=O)c1cc(C(=O)c2c(Cl)cccc2Cl)c[nH]1 |

target: T1, Histone-lysine N-methyltransferase, H3 lysine-79 specific; assay: Inhibition of human DOTL1 (2 to 416 residues)-mediated methylation of nucleosome preincubated for 30 mins followed by addition of S-[methyl-3H-] adenosyl-L-methionine and nucleosome measured after 180 mins by scintillation proximity assay

| Compound | pIC50 |
| --- | --- |
| CNC(=O)c1cc(C(=O)c2c(Cl)cccc2Cl)c[nH]1 | 3.49 |
| Cc1ccc(C#CCN(c2ccc3ncnc(N)c3c2)c2c(Cl)cccc2Cl)nc1 | 7.33 |
| Nc1ncnc2ccc(N(CC#CC(O)c3nccn3CCO)c3c(Cl)cccc3Cl)cc12 (stereo unspecified) | 7.85 |
| C#CCN(c1ccc2ncnc(N)c2c1)c1c(Cl)cccc1Cl | 6.04 |
| Cc1ncc(C#CCN(c2ccc3ncn(C)c(=O)c3c2)c2c(Cl)cccc2Cl)cn1 | 7.05 |
| COc1ccnc2ccc(N(C)c3c(Cl)cccc3Cl)cc12 | 4.41 |
| CC(=O)Nc1cncc(-c2cc(C(=O)c3c(Cl)cccc3Cl)c[nH]2)c1 | 5.37 |

The next lines start with the values.

| pIC50 | Compound |
| --- | --- |
| 4.01 | CN(c1ccc2ncccc2c1)c1c(Cl)cccc1Cl |
| 6.08 | Cn1cnc2ccc(N(CC#Cc3cccnc3)c3c(Cl)cccc3Cl)cc2c1=O |
| 3.86 | O=C(c1ccc2ncccc2c1)c1c(Cl)cccc1Cl |
